Experimental data as given in patent publication US7998965B2, “Glutamate aggrecanase inhibitors” (Wyeth LLC, priority 2005, dated 2011).
Read-outs that look alike come from different tables or passages of the source.

Key:
[1] = biological target: T1, purified recombinant human Aggrecanase-1 (rAgg1) (Homo sapiens, UniProt O75173); experiment: In vitro fluorescence screen for Aggrecanase-1 inhibitors; assay type: biochemical; conditions: for IC50: read-out: Agg1 IC50
T1 sequence (O75173 213-837): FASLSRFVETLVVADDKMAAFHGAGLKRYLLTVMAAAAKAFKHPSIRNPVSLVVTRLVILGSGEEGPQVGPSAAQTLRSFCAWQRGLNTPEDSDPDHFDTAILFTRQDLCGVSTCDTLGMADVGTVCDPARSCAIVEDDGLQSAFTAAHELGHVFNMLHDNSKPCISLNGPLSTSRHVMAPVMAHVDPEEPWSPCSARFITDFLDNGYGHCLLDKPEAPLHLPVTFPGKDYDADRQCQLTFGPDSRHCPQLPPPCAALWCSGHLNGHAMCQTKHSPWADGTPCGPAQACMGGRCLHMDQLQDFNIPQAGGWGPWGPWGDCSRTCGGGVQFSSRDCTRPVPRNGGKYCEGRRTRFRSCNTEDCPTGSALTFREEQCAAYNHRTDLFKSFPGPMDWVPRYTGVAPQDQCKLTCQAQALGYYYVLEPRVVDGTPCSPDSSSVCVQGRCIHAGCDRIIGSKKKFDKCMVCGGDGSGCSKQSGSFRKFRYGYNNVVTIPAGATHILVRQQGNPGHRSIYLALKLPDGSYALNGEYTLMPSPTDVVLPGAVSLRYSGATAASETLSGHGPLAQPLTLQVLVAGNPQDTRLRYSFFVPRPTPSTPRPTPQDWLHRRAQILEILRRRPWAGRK

[2] = system: bovine articular cartilage treated with Interleukin 1 alpha (IL-1α); experiment: Bovine articular cartilage explant cultures: inhibition of degradation of proteoglycan; assay type: cell-based; conditions: inhibitory effect expressed as percentage, concentration not printed
Excerpt: This in vitro procedure was used to evaluate the effect and relative potencies of small molecule compounds to inhibit the degradation of proteoglycan in articular cartilage treated with Interleukin 1 alpha (IL-1α). Treatment of articular cartilage with IL 1α induces expression of a cascade of enzymes that initiates cartilage matrix degradation. This assay was utilized to select small molecule compounds that inhibit the enzyme activity and protects cartilage matrix degradation.
Articular cartilage: bovine metacarpal joints were disinfected with 10% Wescodyne followed by 70% ethanol. 6 mm articular cartilage discs were prepared and rinsed once in PBS and medium, respectively. The discs were cultured in a stirring flask with serum-free medium for 5 days for equilibrium with one medium change. Small molecule compounds: stock solutions of test small molecule compounds (usually at 5 mg/ml) were prepared in DMSO. Working solutions were diluted with DMSO and generally ranged from 0.1 μg/ml to 10 ug/ml. The DMSO stocks were stored at […]. Articular cartilage explant culture medium: DMEM, 2 mM glutamax, 100 U/ml of antibiotic and antimycotic, 50 μg/ml ascorbate and 10 mM Hepes (pH-7.0). Proteoglycan content-Dimethyl methylene blue (DMMB) solution: […] DMMB, 10 ml 100% ethanol, 29.5 ml of 1M NaOH, 3.5 ml of 98% formic acid and water to 1 L. Chondroitin sulphate sodium salt: 1.56-200 ug/ml serial dilutions.
For the explant culture, cartilage discs were cultured in serum-free medium for 48 h or more. Discs were weighed and transferred to a 96-well plate, 1 disc per-well. 0.2 ml of medium containing 5 ng/ml of IL-1 and different concentrations of compounds were added to each well, with 3 wells allocated for each treatment. The medium was collected at days 1, 2, & 3 and replaced accordingly.
For the DMMB assay, conditioned medium (CM) samples were diluted with medium. 10 ul of each standard or diluted sample was added in duplicate into a 96-well-plate and 200 μl of DMMB solution was added into each well. Absorbance at 520 nm was measured for each well. Proteoglycan contents in CM were calculated daily.
The proteoglycan contents are expressed as ug per mg of cartilage. The inhibitory effect of the compounds is expressed as percentage. (See, Tortorella, M. D. et al., Science 1999, 284, 1664-1666).

[3] = biological target: T2, purified recombinant human Aggrecanase-2 (Ag2t-Phe628-Strep) (Homo sapiens, UniProt Q9UNA0); experiment: In vitro fluorescence screen for Aggrecanase-2 inhibitors; assay type: biochemical; conditions: for IC50: read-out: Agg 2 IC50; for Ki: read-out: Ki Agg2
T2 construct: the form used is denoted as Ag2t-Phe628-Strep (MW=41,737)
T2 sequence (Q9UNA0 262-628): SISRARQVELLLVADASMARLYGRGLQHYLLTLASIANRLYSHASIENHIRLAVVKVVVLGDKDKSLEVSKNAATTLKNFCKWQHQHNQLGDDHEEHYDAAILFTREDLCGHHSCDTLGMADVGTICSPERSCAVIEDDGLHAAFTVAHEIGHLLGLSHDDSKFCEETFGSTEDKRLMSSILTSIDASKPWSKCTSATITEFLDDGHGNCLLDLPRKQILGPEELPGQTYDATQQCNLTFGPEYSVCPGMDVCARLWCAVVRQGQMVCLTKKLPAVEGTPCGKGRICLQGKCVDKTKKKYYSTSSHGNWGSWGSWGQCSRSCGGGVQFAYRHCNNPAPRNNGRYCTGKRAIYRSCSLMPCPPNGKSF

[4] = Table 1, enzyme not given, column follows Agg1 IC50, read-out: Ki
[5] = Table 1, first of two columns headed bovine
[6] = Table 1, second of two columns headed bovine

SMILES | IC50 ([1]; Table 1) [nM] | IC50 ([1]; Table 3) [nM] | Ki ([1]; Table 3, read-out: Ki Agg1) [nM] | IC50 ([3]; Table 3) [nM] | Ki ([3]; Table 3) [nM] | bovine [2, 5] [%] | bovine [2, 6] [%] | other results
CC(=O)c1ccc(-c2ccc(C(=O)N[C@@H](CCC(=O)O)C(=O)NC(C)(C)Cc3ccccc3)cc2)s1 [N^2-[4-(5-acetyl-2-thienyl)benzoyl]-N-(1,1-dimethyl-2-phenylethyl)-L-α-glutamine] |  | 300 to 900 |  |  |  |  |  | inhibition at 2.5 µM ([3]; Table 3, at 2500 (nM), read-out: Agg 2 % at concentration): 5%
CC(=O)c1ccc(-c2ccc(C(=O)N[C@@H](CCC(=O)O)C(=O)NC(C)(C)Cc3ccc(Cl)cc3)cc2)s1 [N^2-[4-(5-acetyl-2-thienyl)benzoyl]-N-[2-(4-chlorophenyl)-1,1-dimethylethyl]-L-α-glutamine] |  | 2400 |  |  |  |  |  | inhibition at 7.4 µM ([3]; read-out: Agg 2 % at concentration): 50%
CC(C)(Cc1ccc(Cl)cc1)NC(=O)[C@H](CCC(=O)O)NC(=O)c1ccc(-c2ccc(Br)s2)cc1 [N^2-[4-(5-bromo-2-thienyl)benzoyl]-N-[2-(4-chlorophenyl)-1,1-dimethylethyl]-L-α-glutamine] |  | < 30 | 8.3 | 30 to 100 | 69 |  |  | 
CC(C)(Cc1ccc(F)cc1)NC(=O)[C@@H](CCC(=O)O)NC(=O)c1ccc(-c2ccc(Cl)s2)cc1 [N^2-[4-(5-chloro-2-thienyl)benzoyl]-N-[2-(4-fluorophenyl)-1,1-dimethylethyl]-D-α-glutamine] |  | > 400 |  | > 2700 |  |  |  | 
CC(C)(Cc1ccc(F)cc1)NC(=O)[C@H](CCC(=O)O)NC(=O)c1ccc(-c2ccccc2)cc1F [N^2-[(3-fluorobiphenyl-4-yl)carbonyl]-N-[2-(4-fluorophenyl)-1,1-dimethylethyl]-L-α-glutamine] |  | < 30 |  | 200 |  |  |  | 
CC(C)(Cc1ccc(F)cc1)NC(=O)[C@H](CCC(=O)O)NC(=O)c1ccc(-c2cccc(Cl)c2)cc1 [N^2-[(3′-chlorobiphenyl-4-yl)carbonyl]-N-[2-(4-fluorophenyl)-1,1-dimethylethyl]-L-α-glutamine] |  | < 30 | 8.8 | 200 | 157 |  |  | 
CC(C)(Cc1ccc(F)cc1)NC(=O)[C@H](CCC(=O)O)NC(=O)c1ccc(-c2cccc(F)c2)cc1 [N^2-[(3′-fluorobiphenyl-4-yl)carbonyl]-N-[2-(4-fluorophenyl)-1,1-dimethylethyl]-L-α-glutamine] |  | < 30 | 4.5 | 77 | 81 |  |  | 
CC(C)(Cc1ccc(F)cc1)NC(=O)[C@H](CCC(=O)O)NC(=O)c1ccc(-c2ccc(Cl)cc2)cc1 [N^2-[(4′-chlorobiphenyl-4-yl)carbonyl]-N-[2-(4-fluorophenyl)-1,1-dimethylethyl]-L-α-glutamine] |  | < 30 | 6.7 | 59 | 54 |  |  | 
CC(C)(Cc1ccc(F)cc1)NC(=O)[C@H](CCC(=O)O)NC(=O)c1ccc(-c2ccc(F)cc2)cc1 [N^2-[(4′-fluorobiphenyl-4-yl)carbonyl]-N-[2-(4-fluorophenyl)-1,1-dimethylethyl]-L-α-glutamine] |  | < 30 | 6.9 | 83 | 75 |  |  | 
CC(C)(Cc1ccccc1)NC(=O)[C@H](CCC(=O)O)NC(=O)c1ccc(-c2ccc(F)c(Cl)c2)s1 [N^2-{[5-(3-chloro-4-fluorophenyl)-2-thienyl]carbonyl}-N-(1,1-dimethyl-2-phenylethyl)-L-α-glutamine] |  | < 30 | < 3 | 60 to 200 | 156 |  |  | 
CC(C)(Cc1ccc(Cl)cc1)NC(=O)[C@H](CCC(=O)O)NC(=O)c1ccc(-c2ccc(F)c(Cl)c2)s1 [N^2-{[5-(3-chloro-4-fluorophenyl)-2-thienyl]carbonyl}-N-[2-(4-chlorophenyl)-1,1-dimethylethyl]-L-α-glutamine] |  | 60 |  | 3000 |  |  |  | 
CC(C)(Cc1ccc(F)cc1)NC(=O)[C@H](CCC(=O)O)NC(=O)c1ccc(-c2ccc(F)c(Cl)c2)s1 [N^2-{[5-(3-chloro-4-fluorophenyl)-2-thienyl]carbonyl}-N-[2-(4-fluorophenyl)-1,1-dimethylethyl]-L-α-glutamine] |  | < 30 | 6.7 | 98 | 45 |  |  | 
CC(C)(Cc1ccccc1)NC(=O)[C@H](CCC(=O)O)NC(=O)c1ccc(-c2ccc(Cl)s2)nc1 [N^2-{[6-(5-chloro-2-thienyl)pyridin-3-yl]carbonyl}-N-(1,1-dimethyl-2-phenylethyl)-L-α-glutamine] |  | 20 to 70 | 37.6 | 100 to 300 | 359 |  |  | 

Further lines, with some results ahead:

IC50 ([1]; Table 1) [nM] | IC50 ([1]; Table 3) [nM] | Ki ([1]; Table 3, read-out: Ki Agg1) [nM] | IC50 ([3]; Table 3) [nM] | Ki ([3]; Table 3) [nM] | SMILES | bovine [2, 5] [%] | bovine [2, 6] [%] | other results
48 |  |  |  |  | O=C(O)CC[C@H](NC(=O)c1ccc(-c2ccccc2)cc1)C(=O)NCc1ccc(F)c(F)c1 [Example 8AAA, N^2-(1,1′-biphenyl-4-ylcarbonyl)-N^1-(3,4-difluorobenzyl)-L-α-glutamine] | 83 | 55 | Ki [1, 4]: 44 nM
100 |  |  |  |  | CN(C)c1cccc(CNC(=O)[C@H](CCC(=O)O)NC(=O)c2ccc(-c3ccccc3)cc2)c1 [Example 8BBBB, N^2-(biphenyl-4-ylcarbonyl)-N^1-[3-(dimethylamino)benzyl]-L-α-glutamine] | 40 | 0 | 
100 |  |  |  |  | O=C(O)CC[C@H](NC(=O)c1ccc(-c2ccccc2)cc1)C(=O)NCC1CC1 [Example 8CCC, N^2-(1,1′-biphenyl-4-ylcarbonyl)-N^1-(cyclopropylmethyl)-L-α-glutamine] | 74 | 26 | 
26 |  |  |  |  | O=C(O)CC[C@H](NC(=O)c1ccc(-c2ccccc2)cc1)C(=O)NCCCc1ccccc1 [Example 8FF, N^2-(1,1′-biphenyl-4-ylcarbonyl)-N^1-(3-phenylpropyl)-L-α-glutamine] | 86 | 50 | Ki [1, 4]: 28 nM
100 |  |  |  |  | O=C(O)CC[C@H](NC(=O)c1ccc(-c2ccccc2)cc1)C(=O)NCc1cccc(C(F)(F)F)c1 [Example 8GGG, N^2-(1,1′-biphenyl-4-ylcarbonyl)-N^1-[3-(trifluoromethyl)benzyl]-L-α-glutamine] | 57 | 12 | 
44 |  |  |  |  | O=C(O)CC[C@H](NC(=O)c1ccc(-c2ccccc2)cc1)C(=O)NCCCCc1ccccc1 [Example 8II, N^2-(1,1′-biphenyl-4-ylcarbonyl)-N^1-(4-phenylbutyl)-L-α-glutamine] | 75 | 40 | Ki [1, 4]: 39 nM
300 |  |  |  |  | O=C(O)CC[C@H](NC(=O)c1ccc(-c2ccccc2)cc1)C(=O)NCc1ccc(OC(F)(F)F)cc1 [Example 8T, N^2-(1,1′-biphenyl-4-ylcarbonyl)-N^1-[4-(trifluoromethoxy)benzyl]-L-α-glutamine] | 51 | 20 | 
